# Assay results published in patent US20200268832A1, “COMPOSITIONS FOR DELIVERY TO AND TREATMENT OF ATHEROSCLEROTIC PLAQUES” (Sanford Burnham Prebys Medical Discovery Institute, priority 2015, published 2020).
# “Also recorded” adds a separate entry of the source.
# Tests used:
# [1] = system: orthotopic MCF10Ca1A breast tumors; experiment: In vivo homing of iron oxide nanoworms in tumor-bearing mice; conditions: IV, 7.5 mg Fe/kg, 5-6 hours circulation
# Description: FIG. 10 is a graph of nanoparticles functionalized with compound #008 homing to tumors and atherosclerotic plaques. Orthotopic MCF10Ca1Abreast tumors from mice injected with iron oxide […] (NWs) (7.5 mg/kg of Fe) coated with FAM-#008 or with an inert peptide (control). The NWs were allowed to circulate for 5 hours, the mice were perfused through the heart with PBS and tumors, and organs were collected. Quantification of fluorescence carried out with ImageJ software. Multiple sections from three tumors were analyzed (P<0.0001, Student's t-test).
# Animal experimentation was performed according to the procedures approved by the Animal Research Committee at the Sanford-Burnham Medical Research Institute, San Diego. […] FAM labeled #4014008-NWs were injected into the tail vein (7.5 mg of iron per kilogram of body weight), the animals were euthanized 5-6 hours after the injection by cardiac perfusion with PBS under anesthesia, and organs were dissected and analyzed for particle homing. […]
# For immunostaining, […] tissue sections were first incubated for 1 hour at room temperature with 10% serum from the species in which the secondary antibody was generated, followed by incubation with the primary antibody overnight at 4° C. […] The primary antibodies were detected with Alexa 594 goat anti-rat and 594 goat anti-rabbit secondary antibodies (1:1000; Molecular Probes). […]
# p32 protein = biological target: T1, p32 protein (Homo sapiens, UniProt Q07021); experiment: TT1 phage binding inhibition assay (ELISA-type); conditions: 100 μM compound
# T1 construct: 6xHis; host or cells: Rosetta-gami-2 cells (Novagen); an E. coli strain by own knowledge
# T1 sequence (Q07021 74-282): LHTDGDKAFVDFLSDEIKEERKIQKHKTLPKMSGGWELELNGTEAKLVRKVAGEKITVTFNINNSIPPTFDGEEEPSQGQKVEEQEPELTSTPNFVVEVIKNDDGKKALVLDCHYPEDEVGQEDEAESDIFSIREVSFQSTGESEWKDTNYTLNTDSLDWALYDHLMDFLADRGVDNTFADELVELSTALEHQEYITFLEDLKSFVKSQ
# Description: The binding of individual phage to p32 was verified using ELISA-type of phage binding assay. 96-well plates (Corning Life Sciences, Tewksbury, Mass., USA) were coated with 100 μL of 5 μg/mL p32 in PBS at 4° C. overnight, washed 3 times with 200 μL of PBST (PBS+0.05% Tween-20), blocked with 200 μL of 0.5% bovine serum albumin (BSA) in PBST for 1 h at 37° C., and washed 3 times with PBST. Phages (1.11*10^8 pfu in 100 μL PBST) were added to p32-coated/BSA-blocked wells, the plate was incubated at 4° C. overnight, and washed 3 times with PBST. Subsequently, the plates were incubated with 100 μL in-house prepared polyclonal rabbit anti-T7 antibody diluted 1:1000 in PBST for 1 h at 4° C., and washed 3 times with washing buffer. Horseradish peroxidase (HRP)-labeled anti-rabbit IgG (Sigma-Aldrich) was diluted 1:1000 in PBS, and 100 μL was added to the wells, followed by 1 h incubation at 4° C. and washing 3 times. Next, 100 μL of OPD silver and gold substrate (Sigma-Aldrich) was added to the wells and incubated at room temperature until visible color was observed (<30 min). The reaction was stopped by adding 50 μL of 1M H2SO4, and the plate was read at 492 nm (Varioskan Flash, Thermo Scientific, Waltham, Mass., USA).
# The ability to inhibit TT1-phage binding to p32 protein was used as a secondary assay to verify the hit compounds. The competition assay was based on the phage binding assay described above with minor modifications. ELISA plates were coated with 2.5 μg/mL p32, incubated with phages (1.11*10^8 pfu in 100 μL PBST) and 100 μM hit compounds at 4° C. overnight, and followed by antibody incubation and chromogenic reaction. Negative controls included DMSO at concentration it was used to dissolve the hit compounds.
# atherosclerotic plaques = experiment: Plaque homing of FAM-labeled #008-NWs in atherosclerotic mouse; format: in vivo; conditions: 1 mg/ml, 200 μl, IV, two hours circulation; listed as #008
compound,measurement,setting,value
"Cc1cnccc1NCCN [Compound 4014008, N-(3-methylpyridin-4-yl)ethane-1,2-diamine]",homing to MCF10Ca1A tumors,[1],specifically home to tumors
same,inhibition at 100 µM,p32 protein,50%
same,nanoparticle homing/accumulation in plaques,atherosclerotic plaques,specifically home; also recorded: directs nanoparticle accumulation in plaques
